These results are taken from US20150030702A1, “NITRIC OXIDE-[…] DRESSINGS” (priority 2007, published 2015).

The conditions of data set [1]: nitrite 30 mM, 10 mM hydrochloric acid, hydroquinone 30 mM (FIG. 1); followed by a further slow increase.
Experimental: The pH was measured prior to addition of hydroquinone and then at time-points indicated following addition of hydroquinone.
The concentration of nitrosothiol concentration can be estimated from the absorbance reading using the molar absorption coefficient for nitrosothiols=approximately 10,000 M^−1 cm^−1.
The conditions of data set [2]: cited from earlier work.
For data set [3] the following is noted: under normal conditions; cited from earlier work.

Where two headings read alike, the source gives them in different places.

As to `Oc1ccc(O)cc1` [hydroquinone, Hydroquinone], the “pH after rapid increase in the presence of hydroquinone” value in data set [1] is on record as “about 5.0”.
As usually defined, the pKa is the pH at which an ionisable group is half protonated. `O=NO` [Nitrite, nitrite]: the figures for the pKa result in data set [2] (at 25° C.) and in data set [2] were “about 3.4” and 3.4, respectively.
For `[N]=O` [NO, nitric oxide], in data set [3], the “Maximum solubility in water” value was “approximately 1.7 mM”.
On to `O=C(O)O` [bicarbonic acid], for which, in data set [2], the pKa is on record as 6.3.
